Tests used:
[1] = tested on: HT-29 human colon cancer cell line; assay: Cytotoxicity assay against HT-29 human colon cancer cell line; assay type: cell-based; conditions: HT-29, read-out: cytotoxicity ED50
HT-29 cells = assay: In vivo hollow fiber assay, HT-29 cells; set-up: species or system human; conditions: cells implanted at i.p. site; doses 2.5, 5, 10, 20 mg/kg
[2] = tested on: LNCaP (hormone-dependent human prostate cancer) cells; assay: In vivo hollow fiber assay, LNCaP cells; conditions: cells implanted at i.p. site; doses 2.5, 5, 10, 20 mg/kg

Structure (SMILES) | IC50 [1] [µM] | activity in hollow fiber assay (HT-29) (HT-29 cells) | activity in hollow fiber assay (LNCaP) [2]
COc1cc2oc3cc(O)c(OC)c(CC=C(C)C)c3c(=O)c2c2c1CC(O)C(C)(C)O2 (centres unmarked) [Compound 1, 11-hydroxy-3-O-methyl-1-isomangostin] | > 10 |  | 
COc1c(O)cc2oc3cc(O)c4c(c3c(=O)c2c1CC=C(C)C)OC(C)(C)C(O)C4 (centres unmarked) [Compound 2, 11-hydroxy-1-isomangostin] | > 10 |  | 
COc1c(O)cc2oc3cc(O)c(CC=C(C)C)c(O)c3c(=O)c2c1CC=C(C)C [Compound 5, α-mangostin] |  | inactive | inactive
COc1c(O)cc2oc3cc4c(c(O)c3c(=O)c2c1CC=C(C)C)[C@@H](c1c(O)c(CC=C(C)C)c(O)c2c(=O)c3c(CC=C(C)C)c(OC)c(O)cc3oc12)[C@H](C(C)(C)O)O4 [Compound 11, cratoxyxanthone] | > 10 |  | 

Reference: paper PMC2887388 (Journal of natural products, 2009)
